Laboratory results from article PMC8223498 (Journal of Fluorine Chemistry, 2021).

What was measured:
Type in all cases: biochemical
[1] = biological target: T1, human N-terminally His6-tagged AspH315–758 (Homo sapiens, UniProt Q12797); assay: SPE-MS inhibition assay, AspH (peptide hydroxylation); settings: 0.05 μM His6-AspH315–758, 1.0 μM hFX-CP101–119 peptide, n = 2, mean ± SD
T1 sequence (Q12797 315-758): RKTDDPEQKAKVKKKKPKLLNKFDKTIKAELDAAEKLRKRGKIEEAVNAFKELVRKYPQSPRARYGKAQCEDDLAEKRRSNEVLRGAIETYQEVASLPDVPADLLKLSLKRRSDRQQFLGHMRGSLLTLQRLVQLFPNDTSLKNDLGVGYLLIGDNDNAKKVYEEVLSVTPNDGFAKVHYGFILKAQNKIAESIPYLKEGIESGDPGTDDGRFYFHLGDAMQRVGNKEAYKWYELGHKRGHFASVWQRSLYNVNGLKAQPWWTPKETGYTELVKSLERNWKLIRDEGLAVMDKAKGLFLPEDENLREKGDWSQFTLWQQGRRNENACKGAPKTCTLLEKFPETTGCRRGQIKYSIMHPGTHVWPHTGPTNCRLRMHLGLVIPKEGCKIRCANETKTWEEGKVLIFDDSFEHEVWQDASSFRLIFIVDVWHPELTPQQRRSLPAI
Method: (§1) KDM4E was used as a representative JmjC KDM; it catalyzes the demethylation of histone 3 (H3) N^ε-di- and trimethylated Lys9 (H3K9me3/me2), [11], [12].
(§2) 2OG oxygenases were produced and purified as described in the cited literature, the peptide substrate for AspH was synthesized according to the cited literature while the peptide substrates for FIH and KDM4E were obtained from GL Biochem (Shanghai) Ltd (Shanghai, China). All peptide were prepared with C-terminal amides.

[2] = biological target: recombinant human N-terminally His6-tagged RIOX2_26–465 (Homo sapiens, UniProt Q8IUF8); assay: SPE-MS inhibition assay, RIOX2 (peptide hydroxylation); settings: n = 2, mean ± SD, inactive = no inhibition at 100 – 0.002 μM; for IC50: 0.15 μM His6-RIOX2_26–465, 5.0 μM RPL27A31–49 peptide; for IC50 RIOX2: […] His6-RIOX2_26–465, 5.0 μM RPL27A31–49 peptide
KDM4E = biological target: T2, KDM4E (Homo sapiens, UniProt B2RXH2); assay: SPE-MS inhibition assay, KDM4E (peptide demethylation); settings: 10.0 μM H3_1–15K9me3, n = 2, mean ± SD, inactive = no inhibition at 100 – 0.002 μM
T2 sequence (B2RXH2 1-506): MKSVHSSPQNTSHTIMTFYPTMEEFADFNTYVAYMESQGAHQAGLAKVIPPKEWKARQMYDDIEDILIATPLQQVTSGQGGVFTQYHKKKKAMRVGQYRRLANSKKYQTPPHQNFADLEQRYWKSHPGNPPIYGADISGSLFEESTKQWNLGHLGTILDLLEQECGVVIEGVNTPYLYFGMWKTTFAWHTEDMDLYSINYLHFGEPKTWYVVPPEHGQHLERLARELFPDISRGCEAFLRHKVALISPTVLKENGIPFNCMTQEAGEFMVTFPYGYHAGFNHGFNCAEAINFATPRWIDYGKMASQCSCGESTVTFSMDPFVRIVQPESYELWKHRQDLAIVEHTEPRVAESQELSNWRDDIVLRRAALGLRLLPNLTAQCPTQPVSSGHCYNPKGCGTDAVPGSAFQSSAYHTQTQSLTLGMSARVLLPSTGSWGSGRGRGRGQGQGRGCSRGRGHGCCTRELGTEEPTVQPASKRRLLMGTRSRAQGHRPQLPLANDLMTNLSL
Method: as §1, §2

[3] = biological target: T3, N-terminally His6-tagged FIH (Homo sapiens, UniProt Q9NWT6); assay: SPE-MS inhibition assay, FIH (peptide hydroxylation); settings: 5.0 μM HIF-1α CAD (788–822), n = 2, mean ± SD, inactive = no inhibition at 100 – 0.002 μM
T3 construct: His6 (N); made in house
Method: as §1, §2

Chain of recombinant human N-terminally His6-tagged RIOX2_26–465 (Q8IUF8 26-465): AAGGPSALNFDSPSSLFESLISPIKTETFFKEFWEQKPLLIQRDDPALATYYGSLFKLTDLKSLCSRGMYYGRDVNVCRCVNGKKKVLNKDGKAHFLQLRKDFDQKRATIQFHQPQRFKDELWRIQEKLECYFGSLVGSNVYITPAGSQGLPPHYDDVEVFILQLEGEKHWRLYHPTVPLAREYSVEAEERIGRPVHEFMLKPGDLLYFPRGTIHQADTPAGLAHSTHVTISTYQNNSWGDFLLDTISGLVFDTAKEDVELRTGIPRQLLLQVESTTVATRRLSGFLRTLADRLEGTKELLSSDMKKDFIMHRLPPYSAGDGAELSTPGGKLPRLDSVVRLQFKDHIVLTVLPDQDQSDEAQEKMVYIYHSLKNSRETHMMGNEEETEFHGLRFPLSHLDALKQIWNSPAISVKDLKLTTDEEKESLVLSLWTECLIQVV
T3 sequence (Q9NWT6 whole entry): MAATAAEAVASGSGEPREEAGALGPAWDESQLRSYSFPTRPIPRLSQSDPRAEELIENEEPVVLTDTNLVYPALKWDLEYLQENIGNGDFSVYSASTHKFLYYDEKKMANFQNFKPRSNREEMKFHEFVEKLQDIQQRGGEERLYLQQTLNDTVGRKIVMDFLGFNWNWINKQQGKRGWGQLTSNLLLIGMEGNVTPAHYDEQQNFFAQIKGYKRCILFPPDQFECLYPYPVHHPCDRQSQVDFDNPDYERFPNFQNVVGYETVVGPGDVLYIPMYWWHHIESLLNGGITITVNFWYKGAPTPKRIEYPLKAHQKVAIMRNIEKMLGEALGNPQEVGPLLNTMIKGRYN

Row | Compound | IC50 [1] | IC50 [2] | IC50 (KDM4E) | IC50 [3] | IC50 RIOX2 [2] | IC50 KDM4E (KDM4E) | IC50 FIH [3]
1 | O=C(O)c1ccnc(C(=O)O)c1 [2,4-PDCA, pyridine-2,4-dicarboxylate, reference compound] | ~30 nM |  |  |  |  |  | 
2 | O=C(O)c1ccnc(C(=O)O)c1F [compound 7, 3-Fluoropyridine-2,4-dicarboxylic acid] | 110 ± 10 nM | > 50000 nM | 1300 ± 200 nM | > 50000 nM |  |  | 
3 | O=C(O)c1cc(C(=O)O)c(F)cn1 [compound 8, 5-Fluoropyridine-2,4-dicarboxylic acid] | 50 ± 10 nM | > 50000 nM | 1600 ± 300 nM | > 50000 nM |  |  | 
4 | O=C(O)c1ccnc(C(=O)O)c1C(F)(F)F [compound 13, 3-Trifluoromethylpyridine-2,4-dicarboxylic acid] | > 50000 nM |  |  |  | ^d)inactive | ^d)inactive | ^d)inactive
5 | O=C(O)c1cc(C(=O)O)c(C(F)(F)F)cn1 [compound 14, 5-Trifluoromethylpyridine-2,4-dicarboxylic acid] | 4200 ± 1000 nM |  |  |  | ^d)inactive | ^d)inactive | ^d)inactive
